Data as given in US11104883B2, “SC-beta cells and compositions and methods for generating the same” (President and Fellows of Harvard College, priority 2013, dated 2021).

Columns and labels:
SC-β cells [1] = test: GSIS of SC-β cells after additional factors in the last-step (Stage 6) media; type: cell-based, human; details: factor added to CMRL media containing Alk5 inhibitor and T3 hormone; versus CMRL only, CMRL+Alk5i+T3, S3+Alk5i+T3
Text: To induce the in vitro maturation of at least some of the Pdx1-positive, NKX6-1-positive, insulin-positive endocrine cells into SC-β cells, the Pdx1-positive, NKX6-1-positive, insulin-positive endocrine cells are maintained in a suitable culture medium for a sufficient period of time. […] Adding additional factors to the CMRL media at the last step of differentiation (Stage 6) (FIG. 14A), however, was also found to generate a better glucose stimulated insulin secretion (GSIS) response by SC-β cells as measured by either stimulation index between high and low glucose challenges or by the amount of insulin released. Such additional factors may include, but are not limited to, Sant1, XXI, and SSP. The stimulation index, as calculated by the ratio of insulin secreted in high glucose (15 mM) to low glucose (2.5 mM), was greater for the SC-β cells maintained in a CMRL media containing Alk5 inhibitor, T3 hormone and either Sant1, XXI or SSP than those SC-β cells maintained in only CMRL media, CMRL media containing Alk5 inhibitor and T3 hormone, or S3 media containing Alk5 inhibitor and T3 hormone (FIG. 14B). Furthermore, the amount of insulin secreted was greater for the SC-β cells maintained in a CMRL media containing Alk5 inhibitor, T3 hormone and either Sant1, XXI or SSP than those SC-β cells maintained in only CMRL media, CMRL media containing Alk5 inhibitor and T3 hormone, or S3 media containing Alk5 inhibitor and T3 hormone (FIG. 14C).
Alternatively, Days 21-35: CMRLS+10 μM Alk5i II+1 μM T3+Sant1.
Alternatively, Days 21-35: CMRLS+10 μM Alk5i II+1 μM T3+XXI.
Alternatively, Days 21-35: CMRLS+10 μM Alk5i II+1 μM T3+SSP.

SC-β cells [2] = test: Anti-diabetic drug treatment of plated SC-β cells, secreted human insulin ELISA; type: cell-based; details: 2 and 20 mM glucose
Method: FIG. 16A is a schematic illustration of the utility of SC-β cells for treating diabetes or screening drugs to improve function or replication. FIG. 16B is a table listing diabetic drugs investigated and their general therapeutic category. FIG. 16C is a graph showing ELISA measurements of secreted human insulin from plated SC-β cells treated with the indicated drugs in 2 and 20 mM glucose. Indicated p values compare the insulin value in 20 mM glucose between the drug and the control. FIG. 16D is an immunofluorescence image of dispersed and plated SC-β cells stained with DAPI (blue), C-peptide (green), and Ki67 (red) without treatment. FIG. 16E is an immunofluorescence image of dispersed and plated SC-β cells stained with DAPI (blue), C-peptide (green), and Ki67 (red) treated with prolactin for 48 hours. […] FIG. 16G is a graph illustrating fasting blood glucose measurements of Akita mice transplanted with SC-β cells (n=6) or PH cells (n=6). *p<0.05 comparing the two cell groups on the same day. FIG. 16H is a graph illustrating blood glucose measurements from progressively diabetic Akita mice transplanted with SC-β cells or PH cells. Measurements were taken before (white bars) and 20 min after (black bars) a glucose injection of mice transplanted 2 weeks prior. Glucose measurements were saturated at 550 mg/dL. *p<0.05 comparing the two cell groups at the same time post glucose injection. FIG. 16I is a graph showing ELISA measurements of human insulin from the serum of Akita mice 20 min after a glucose injection. Mice were challenged with glucose 2 weeks post transplantation. *p<0.05 comparing the two cell groups. Scale bar-50 μm.
The inventors first tested whether SC-β cells could respond to existing anti-diabetic drugs from several different classes (FIG. 16B). LY2608204 is glucokinase activator in clinical trials while liraglutide, tolbutamide, and nateglinide are examples of GLP-1 agonists and secretagogues (sulfonylureas and meglitinides), respectively, that have been used clinically (Matschinsky, 2009; Modi, 2007; Vetere et al., 2014).

cells in Steps 3-6 = test: Modified differentiation protocol (Steps 3-6): cell survival and marker-positive populations; type: cell-based, human; details: for cell survival: Steps 3-5
Text: FIG. 15A is a schematic illustration of the protocol.
One challenge for the stem cell field has been generating a sufficient quantity of SC-β cells that can be useful for drug screening, disease modeling, or therapeutic use. For example, hES cells are technically difficult to culture, are vulnerable to apoptosis upon cellular detachment and dissociation, undergo massive cell death particularly after complete dissociation, and have low cloning efficiency. (Watanabe, K. et al., Nature Biotechnology 25, 681-686 (2007)). As a result, the quantity of viable SC-β cells yielded may be low. By modify the protocol between Steps 3 and 6 in the manner shown in FIG. 15A, more pure NKX6.1+ endocrine clusters can be generated (FIG. 15B) leading to more SC-β cells that can be therapeutically useful.
In Steps 3-5, for instance, cell survival can be improved by adding a rho-associated protein kinase inhibitor, or a Rock inhibitor. It is believed that the addition of a Rock inhibitor enhances survival of ES cells by preventing dissociation-induced apoptosis thus increasing their cloning efficiency. (Watanabe et al.) Examples of Rock inhibitors include, but are not limited to, Y-27632, Fasudil/HA1077, and H-1152.
In addition to treating the cells with a Rocki inhibitor, the cells in Steps 3-4 can be treated with ActivinA alone or in combination with Nicotinamide. […] Since SOX2 and NKX6-1 are mutually exclusive (FIG. 15E), down-regulation of SOX2 results in the up-regulation of NKX6-1, a marker for a mature pancreatic cell.
In Steps 5-6, cell survival can further be enhanced by treating cells with staurosporine. Staurosporine is known to be an activator of neuronal, glial, and stem cell-like neurosphere differentiation and is also thought to induce apoptosis. (Schumacher, et al., Mol. Cell. Neurosci. 2003; 23(4): 669-680).
Finally, cell survival can further be enhanced by treating cells with a culture medium containing Alk5i, T3 in combination with XXI, a γ-secretase inhibitor that improves β cell maturation.

SC-β cells [3] = test: β cell replication: C-peptide and Ki67 staining of plated SC-β cells; type: cell-based, human; details: SC-β cells treated with prolactin for 48 hours
Method: FIG. 16A is a schematic illustration of the utility of SC-β cells for treating diabetes or screening drugs to improve function or replication. FIG. 16B is a table listing diabetic drugs investigated and their general therapeutic category. FIG. 16C is a graph showing ELISA measurements of secreted human insulin from plated SC-β cells treated with the indicated drugs in 2 and 20 mM glucose. Indicated p values compare the insulin value in 20 mM glucose between the drug and the control. FIG. 16D is an immunofluorescence image of dispersed and plated SC-β cells stained with DAPI (blue), C-peptide (green), and Ki67 (red) without treatment. FIG. 16E is an immunofluorescence image of dispersed and plated SC-β cells stained with DAPI (blue), C-peptide (green), and Ki67 (red) treated with prolactin for 48 hours. […] FIG. 16G is a graph illustrating fasting blood glucose measurements of Akita mice transplanted with SC-β cells (n=6) or PH cells (n=6). *p<0.05 comparing the two cell groups on the same day. […]
Cells were dispersed and plated onto 96 well plates. […] The percentage of target cell-types was quantified using the Array Scan Cellomics high-content screening system. Here 30 images were acquired per well and quantified. Cells labeled by antibody staining and total cell number (based on DAPI nuclei staining) were quantified to obtain percentages of target cell types.

Cc1nn(-c2ccccc2)c(C)c1/C=N/N1CCN(Cc2ccccc2)CC1 [Sant1]
amount of insulin secreted (SC-β cells [1]): greater | stimulation index, ratio of insulin secreted in high glucose (15 mM) to low glucose (2.5 mM) (SC-β cells [1]): greater

O=C(Nc1ncc(SCCN2CCCC2)s1)[C@]1(c2ccc(S(=O)(=O)C3CC3)cc2)C[C@H]1C1CCCCC1 [LY2608204]
insulin secretion in vitro following a glucose challenge (SC-β cells [2]): increasing insulin secretion

CN[C@@H]1C[C@H]2O[C@@](C)([C@@H]1OC)n1c3ccccc3c3c4c(c5c6ccccc6n2c5c31)C(=O)NC4 [staurosporine]
percentage of ChromograninA (cells in Steps 3-6; Steps 5-6): increasing the percentage of ChromograninA | percentage of NKX6-1/C-peptide+ cells (cells in Steps 3-6; Steps 5-6): increasing the percentage of NKX6-1.C-peptide+ cells

CC(C)[C@H]1CC[C@H](C(=O)N[C@H](Cc2ccccc2)C(=O)O)CC1 [nateglinide]
insulin secretion in vitro following a glucose challenge (SC-β cells [2]): increasing insulin secretion

NC(=O)c1cccnc1 [Nicotinamide]
cell survival (cells in Steps 3-6): improve cell survival

CCCCNC(=O)NS(=O)(=O)c1ccc(C)cc1 [tolbutamide]
insulin secretion in vitro following a glucose challenge (SC-β cells [2]): increasing insulin secretion

C[C@H](NC(=O)Cc1cc(F)cc(F)c1)C(=O)N[C@H]1N=C(c2ccccc2)c2ccccc2N(C)C1=O [XXI]
NeuroD1+ population (cells in Steps 3-6; added to medium with Alk5i and T3 at Steps 5 and 6): increase the NeuroD1+ population | amount of insulin secreted (SC-β cells [1]): greater | stimulation index, ratio of insulin secreted in high glucose (15 mM) to low glucose (2.5 mM) (SC-β cells [1]): greater

B1: prolactin: hormone tested for β cell replication (protein, UniProt P01236 29-227, looked up)
Prolactin: LPICPGGAARCQVTLRDLFDRAVVLSHYIHNLSSEMFSEFDKRYTHGRGFITKAINSCHTSSLATPEDKEQAQQMNQKDFLSLIVSILRSWNEPLYHLVTEVRGMQEAPEAILSKAVEIEEQTKRLLEGMELIVSQVHPETKENEIYPVWSGLPSLQMADEESRLSAYYNLLHCLRRDSHKIDNYLKLLKCRIIHNNNC
Ki67+/C-peptide+ cells (SC-β cells [3]): 0.39±0.08%

B2: Activin A: growth factor from the TGF-β superfamily (protein, UniProt P08476 311-426, looked up)
Inhibin beta A chain: GLECDGKVNICCKKQFFVSFKDIGWNDWIIAPSGYHANYCEGECPSHIAGTSGSSLSFHSTVINHYRMRGHSPFANLKSCCVPTKLRPMSMLYYDDGQNIIKKDIQNMIVEECGCS
modifications: Inhibin beta A chain
notes: growth factor from the TGF-β superfamily
cell survival (cells in Steps 3-6): improve cell survival
